pEC50: −log10 of the molar value.

One series is described as follows: in vitro. Type of series: cell-based. The note with it: human. Here is the method: (§1) Black 96-well clear-bottom microtiter plates (Corning, Amsterdam, The Netherlands) were filled in duplicate using a customized robot system with serial 4-fold dilutions of compound in a final volume of 50 μl culture medium [RPMI medium without phenol red, 10% FBS, 0.04% gentamycin (50 mg/ml) and 0.5% DMSO]. Then, 100 μl of a HeLa cell suspension (5×10^4 cells/ml) in culture medium was added to each well followed by the addition of 50 μl rgRSV224 (MOI=0.02) virus in culture medium using a multidrop dispenser (Thermo Scientific, Erembodegem, Belgium). rgRSV224 virus is an engineered virus that includes an additional GFP gene (Hallak et al, 2000) and was in-licensed from the NIH (Bethesda, Md., USA). Medium, virus- and mock-infected controls were included in each test. Cells were incubated at 37° C. in a 5% CO2 atmosphere. Three days post-virus exposure, viral replication was quantified by measuring GFP expression in the cells by a MSM laser microscope (Tibotec, Beerse, Belgium). The EC50 was defined as the 50% inhibitory concentration for GFP expression. In parallel, compounds were incubated for three days in a set of white 96-well microtitier plates (Corning) and the cytotoxicity of compounds in HeLa cells was determined by measuring the ATP content of the cells using the ATPlite kit (PerkinElmer, Zaventem, Belgium) according to the manufacturer's instructions. The CC50 was defined as the 50% concentration for cytotoxicity.

The next series has as its system rgRSV224 virus. The series can be described thus: Antiviral activity: rgRSV224 (GFP-expressing RSV) replication in HeLa cells, GFP expression readout. Type of series: cell-based. The note with it: human respiratory syncytial virus, 72 h, read-out: WT activity EC50. The method, then:
as §1

The term CC50 denotes the concentration giving 50% cytotoxicity. Low values mean harm at low concentration, high ones better tolerance by the cells. For orientation: pEC50 means the negative decadic logarithm of the EC50, by convention in mol/L. `O=C1CN(C2CC2)c2ccncc2N1Cc1nc2cc(Cl)ccc2n1CCCC(F)(F)F` [Compound P27, 4-((5-chloro-1-(4,4,4-trifluorobutyl)-1H-benzo[d]imidazol-2-yl)methyl)-1-cyclopropyl-1,2-dihydropyrido[3,4-b]pyrazin-3(4H)-one] registered a CC50 at 3 days in the series “in vitro” of over 100 µM. For the same compound, the pEC50 in the series with rgRSV224 virus was 7.54.

Regarding `CS(=O)(=O)CCCn1c(Cn2c(=O)cnc3cc(F)ccc32)cc2cc(Br)ccc21` [Compound P29, 1-((5-bromo-1-(3-(methylsulfonyl)propyl)-1H-indol-2-yl)methyl)-6-fluoroquinoxalin-2(1H)-one], in the series “in vitro”, the CC50 at 3 days amounted to 9.73 µM. In addition, the pEC50 with rgRSV224 virus is 7.26.

The record behind these values is US10501445B2, “Quinoxalinones and dihydroquinoxalinones as respiratory syncytial virus antiviral agents” (JANSSEN SCIENCES IRELAND UC, priority 2013, dated 2019).
